Assay results published in US9314468B2, “Chemokine receptor modulators” (Altiris Therapeutics, Inc., priority 2008, dated 2016).
pEC50, pIC50: −log10 of the molar value. Structures can show the parent of a compound that is named as a salt.

Tests used:
[1] = tested on: MT-4 cells; details: cited from earlier work
[2] = tested on: HIV; details: MT-4 cells; read-out: concentration required for 50% protection of HIV-induced cytopathogenicity; cited from earlier work
[3] = tested on: T-tropic HIV; assay: Phenoscreen HIV entry inhibition assay; format: cell-based; details: Human immunodeficiency virus 1, read-out: IC50 for viral entry inhibition
Description: A selected set of compounds are tested for their ability to inhibit the cellular entry of T-tropic HIV. The assay for this inhibition is carried out on a contractual basis at Monogram Biosciences, Inc. using their well established Phenoscreen™ assay. Briefly, HIV strains of interest are tagged with a luciferase indicator gene to create an appropriate test vector. The test vector is amplified through transfection and the resulting virus is incubated in the presence of target host cells where intracellular […] activity then becomes a measure of infection. Amplified virus is exposed to target host cells in the presence of a range of test drug concentrations to determine IC50 measurements of entry inhibition. A modification of this test is further reapplied as a novel drug assay used in partnership with a number of pharmaceutical companies to test the effectiveness of novel entry inhibitors that target specific chemokines. It can used to detect activity against T-tropic, M-tropic, and dual-tropic viruses and Monogram Biosciences has a large bank of over 10,000 different virus strains to ultimately asses the range of applicability of our chemokine modulators. Certain compounds are tested to establish efficacy in a number of viral strains.

[4] = target: hERG (human ether-á-go-go-related gene) potassium channel (Homo sapiens (Human), UniProt Q12809); assay: hERG potassium channel current, automatic patch clamp; format: cell-based; details: PatchXpress, 5 minutes exposure, room temperature
Description: The in vitro effects of the selected compounds on the hERG (human ether-á-go-go-related gene) potassium channel current (a surrogate for IKr, the rapidly activating, delayed rectifier cardiac potassium current) expressed in mammalian cells were evaluated at room temperature using the PatchXpress 7000A (Molecular Devices), an automatic parallel patch clamp system.

[5] = target: CXCR4 (Homo sapiens (Human), UniProt P61073); assay: Functional calcium mobilization assay (SDF-1α induced); format: cell-based; details: Table 9, selected compounds; read-out: Ca Flux IC50
[6] = Cytotoxicity assay, 6 days; format: cell-based; details: human, CCRF-CEM cells
Description: Cytotoxicity of the compounds was assessed by the following assay. CCRF-CEM cells in media (RPMI 1640, 15% FBS, Pen/Strep., 1% non-essential amino acids) are incubated with various concentrations of test compound for 6 days undisturbed. Cell number relative to no compound controls is determined using either Serotec's “Alamar blue” per manufacturers protocol or Promega's “Cell Titer 96 Aqueous One Solution Cell Proliferation Assay” kit per manufacturers protocol. The number cells not surviving after test compound administration is determined for each concentration tested and the EC50 (concentration of compound in which 50% of the cells survive) is determined

[7] = in vivo; cited from earlier work

Sequence of CXCR4 (P61073 whole entry): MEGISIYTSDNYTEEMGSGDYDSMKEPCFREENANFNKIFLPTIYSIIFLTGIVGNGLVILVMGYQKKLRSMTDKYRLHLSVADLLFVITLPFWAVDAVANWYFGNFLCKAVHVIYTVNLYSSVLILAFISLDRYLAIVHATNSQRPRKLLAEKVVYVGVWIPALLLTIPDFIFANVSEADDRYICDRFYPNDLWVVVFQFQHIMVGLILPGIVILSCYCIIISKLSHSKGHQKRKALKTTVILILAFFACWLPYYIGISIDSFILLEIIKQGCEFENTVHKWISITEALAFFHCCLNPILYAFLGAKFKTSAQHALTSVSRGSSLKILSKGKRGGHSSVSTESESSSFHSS
Sequence of hERG (human ether-á-go-go-related gene) potassium channel (Q12809 whole entry): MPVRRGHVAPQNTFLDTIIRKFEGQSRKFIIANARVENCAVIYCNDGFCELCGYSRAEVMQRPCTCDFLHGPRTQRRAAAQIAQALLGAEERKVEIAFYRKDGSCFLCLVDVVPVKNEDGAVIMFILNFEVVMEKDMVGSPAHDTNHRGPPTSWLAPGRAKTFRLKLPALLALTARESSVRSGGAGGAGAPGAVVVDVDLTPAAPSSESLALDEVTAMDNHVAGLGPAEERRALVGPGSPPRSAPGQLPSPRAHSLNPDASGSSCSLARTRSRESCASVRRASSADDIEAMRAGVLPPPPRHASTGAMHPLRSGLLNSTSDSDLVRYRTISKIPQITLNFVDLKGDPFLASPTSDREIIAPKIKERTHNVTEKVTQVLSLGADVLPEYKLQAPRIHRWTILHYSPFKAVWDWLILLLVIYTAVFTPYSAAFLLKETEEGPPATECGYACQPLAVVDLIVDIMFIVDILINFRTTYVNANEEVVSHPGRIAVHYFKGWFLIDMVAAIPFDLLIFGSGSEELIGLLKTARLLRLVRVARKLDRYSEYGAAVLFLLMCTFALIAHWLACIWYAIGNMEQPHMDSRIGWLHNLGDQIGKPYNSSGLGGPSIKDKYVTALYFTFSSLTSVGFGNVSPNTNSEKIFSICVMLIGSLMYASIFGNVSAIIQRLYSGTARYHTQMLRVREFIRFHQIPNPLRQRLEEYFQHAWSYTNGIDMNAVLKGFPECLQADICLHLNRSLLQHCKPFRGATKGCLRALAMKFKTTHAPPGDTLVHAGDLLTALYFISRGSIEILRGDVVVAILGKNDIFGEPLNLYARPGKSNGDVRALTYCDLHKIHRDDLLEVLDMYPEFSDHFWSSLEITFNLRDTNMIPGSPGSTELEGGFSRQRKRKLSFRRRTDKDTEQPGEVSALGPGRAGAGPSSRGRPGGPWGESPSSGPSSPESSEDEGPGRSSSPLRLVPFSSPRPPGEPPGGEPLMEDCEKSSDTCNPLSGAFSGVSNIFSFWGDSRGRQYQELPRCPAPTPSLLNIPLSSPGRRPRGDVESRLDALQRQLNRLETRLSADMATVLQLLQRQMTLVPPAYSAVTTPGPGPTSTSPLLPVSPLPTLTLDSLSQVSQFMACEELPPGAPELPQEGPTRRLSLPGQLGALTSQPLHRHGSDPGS

Row | Compound | pIC50 [3] | pIC50 [4] | pIC50 [5] | further results
1 | TN14003 |  |  |  | concentration leading to 50% toxicity [1]: 410; pEC50 [2]: 9.22
2 | NCCCCN(Cc1cccc2cc[nH]c12)C1CCCc2cccnc21 (stereo not shown) [B, N1-((1H-indol-7-yl)methyl)-N1-(5,6,7,8-tetrahydroquinolin-8-yl)butane-1,4-diamine] | ≥ 5.00 |  |  | 
3 | NCCCCN(Cc1cn(-c2ccccc2)nn1)C1CCCc2cccnc21 (stereo not shown) [Z, N-(4-aminobutyl)-N-((1-phenyl-1H-1,2,3-triazol-4-yl)methyl)-5,6,7,8-tetrahydro-quinolin-8-amine tetrahydrochloride] | ≥ 5.00 |  |  | 
4 | NCCCCN(Cc1nccc2c1[nH]c1ccccc12)C1CCCc2cccnc21 (stereo not shown) [A, N-((9H-pyrido[3,4-b]indol-1-yl)methyl)-N-(4-aminobutyl)-5,6,7,8-tetrahydroquinolin-8-amine tetrahydrochloride] | ≥ 5.00 |  |  | 
5 | CC(C)CN(CCC[C@H](NC1CCCc2cccnc21)C(=O)N[C@H](C)c1cccc2ccccc12)CC(C)C (stereo partly drawn) [AY, (S)-5-(diisobutylamino)-N-((R)-1-(naphthalen-1-yl)ethyl)-2-(5,6,7,8-tetrahydroquinolin-8-ylamino)pentanamide trihydrochloride] | ≥ 5.00 |  |  | 
6 | CN(Cc1nnc(-c2ccccc2)n1C)C1CCCc2cccnc21 (stereo not shown) [BP, N-methyl-N-((4-methyl-5-phenyl-4H-1,2,4-triazol-3-yl)methyl)-5,6,7,8-tetrahydroquinolin-8-amine] | ≥ 5.00 |  |  | 
7 | c1ccc(-n2cc(CN(CCCCNCc3ccccn3)C3CCCc4cccnc43)nn2)cc1 (stereo not shown) [AB, N1-((1-phenyl-1H-1,2,3-triazol-4-yl)methyl)-N4-(pyridin-2-ylmethyl)-N1-(5,6,7,8-tetrahydroquinolin-8-yl)butane-1,4-diamine hydrochloride] | ≥ 5.00 |  |  | 
8 | NCCCCN(Cc1nccc2c3ccccc3n(CCCN3CCNCC3)c12)[C@H]1CCCc2cccnc21 [drawing 822] |  | 5.39 | 7.80 | EC50 at 6 days [6]: 30000 nM
9 | c1cnc2c(c1)CCCC2N(CCCN1CCNCC1)Cc1nccc2c3ccccc3n(CCN3CCOCC3)c12 (stereo not shown) [drawing 830] |  | 5.51 | 7.62 | 
10 | NCCCCN(Cc1nccc2c3ccccc3n(CC(=O)O)c12)[C@H]1CCCc2cccnc21 [drawing 820] |  | 5.57 | 7.66 | EC50 at 6 days [6]: 30000 nM
11 | c1cc(CN2CCCNCCNCCCNCC2)ccc1CN1CCCNCCNCCCNCC1 [AMD3100] |  |  |  | side effect in clinical study [7]: cardiac-related side effect
12 | NCCCCN(Cc1nccc2c3ccccc3n(CC(N)=O)c12)[C@H]1CCCc2cccnc21 [drawing 832] |  | 5.74 | 7.74 | 
